Reference: ChEMBL document CHEMBL3352227, “Synthesis, antimycobacterial and antibacterial evaluation of l-[(1R, 2S)-2-fluorocyclopropyl]fluoroquinolone derivatives containing an oxime functional moiety” (Eur J Med Chem, 2014)
Converted amounts (≈) assume the structure as drawn.

Columns and labels:
Assay type in all cases: functional
[1] = system: Mycobacterium tuberculosis; experiment: Antimycobacterial activity against Mycobacterium tuberculosis H37Rv ATCC 27294 by MABA method
Escherichia coli [2] = experiment: Antibacterial activity against Escherichia coli ATCC 25922 after 18 to 24 hrs by standard twofold serial dilution method
Escherichia coli [3] = experiment: Antibacterial activity against Escherichia coli 12-1 after 18 to 24 hrs by standard twofold serial dilution method
Escherichia coli [4] = experiment: Antibacterial activity against extended-spectrum beta-lactamase producing Escherichia coli 12-2 after 18 to 24 hrs by standard twofold serial dilution method
Escherichia coli [5] = experiment: Antibacterial activity against extended-spectrum beta-lactamase producing Escherichia coli 12-3 after 18 to 24 hrs by standard twofold serial dilution method
Escherichia coli [6] = experiment: Antibacterial activity against extended-spectrum beta-lactamase producing Escherichia coli 12-14 after 18 to 24 hrs by standard twofold serial dilution method
Escherichia coli [7] = experiment: Antibacterial activity against extended-spectrum beta-lactamase producing Escherichia coli 12-15 after 18 to 24 hrs by standard twofold serial dilution method
Klebsiella pneumoniae [8] = experiment: Antibacterial activity against Klebsiella pneumoniae 12-1 after 18 to 24 hrs by standard twofold serial dilution method
Klebsiella pneumoniae [9] = experiment: Antibacterial activity against Klebsiella pneumoniae 12-2 after 18 to 24 hrs by standard twofold serial dilution method
Klebsiella pneumoniae [10] = experiment: Antibacterial activity against Klebsiella pneumoniae 12-4 after 18 to 24 hrs by standard twofold serial dilution method
Klebsiella pneumoniae [11] = experiment: Antibacterial activity against extended-spectrum beta-lactamase producin Klebsiella pneumoniae 12-3 after 18 to 24 hrs by standard twofold serial dilution method
Klebsiella pneumoniae [12] = experiment: Antibacterial activity against extended-spectrum beta-lactamase producin Klebsiella pneumoniae 12-4 after 18 to 24 hrs by standard twofold serial dilution method
Klebsiella pneumoniae [13] = experiment: Antibacterial activity against extended-spectrum beta-lactamase producin Klebsiella pneumoniae 12-7 after 18 to 24 hrs by standard twofold serial dilution method
Klebsiella pneumoniae [14] = experiment: Antibacterial activity against extended-spectrum beta-lactamase producin Klebsiella pneumoniae 12-14 after 18 to 24 hrs by standard twofold serial dilution method
Pseudomonas aeruginosa [15] = experiment: Antibacterial activity against Pseudomonas aeruginosa 12-12 after 18 to 24 hrs by standard twofold serial dilution method
Pseudomonas aeruginosa [16] = experiment: Antibacterial activity against Pseudomonas aeruginosa 12-14 after 18 to 24 hrs by standard twofold serial dilution method
Staphylococcus aureus [17] = experiment: Antibacterial activity against Staphylococcus aureus ATCC 25923 after 18 to 24 hrs by standard twofold serial dilution method
Staphylococcus aureus [18] = experiment: Antibacterial activity against methicillin-sensitive Staphylococcus aureus 12-1 after 18 to 24 hrs by standard twofold serial dilution method
Staphylococcus aureus [19] = experiment: Antibacterial activity against methicillin-sensitive Staphylococcus aureus 12-2 after 18 to 24 hrs by standard twofold serial dilution method
Staphylococcus aureus [20] = experiment: Antibacterial activity against methicillin-sensitive Staphylococcus aureus 12-4 after 18 to 24 hrs by standard twofold serial dilution method
Staphylococcus aureus [21] = experiment: Antibacterial activity against methicillin-sensitive Staphylococcus aureus 12-5 after 18 to 24 hrs by standard twofold serial dilution method
Staphylococcus aureus [22] = experiment: Antibacterial activity against methicillin-resistant Staphylococcus aureus 12-2 after 18 to 24 hrs by standard twofold serial dilution method
Staphylococcus aureus [23] = experiment: Antibacterial activity against methicillin-resistant Staphylococcus aureus 12-4 after 18 to 24 hrs by standard twofold serial dilution method
Staphylococcus aureus [24] = experiment: Antibacterial activity against methicillin-resistant Staphylococcus aureus 12-5 after 18 to 24 hrs by standard twofold serial dilution method
[25] = system: Staphylococcus epidermidis; experiment: Antibacterial activity against methicillin-sensitive Staphylococcus epidermidis 12-1 after 18 to 24 hrs by standard twofold serial dilution method
[26] = system: Staphylococcus epidermidis; experiment: Antibacterial activity against methicillin-sensitive Staphylococcus epidermidis 12-3 after 18 to 24 hrs by standard twofold serial dilution method
[27] = system: Staphylococcus epidermidis; experiment: Antibacterial activity against methicillin-sensitive Staphylococcus epidermidis 12-6 after 18 to 24 hrs by standard twofold serial dilution method
[28] = system: Staphylococcus epidermidis; experiment: Antibacterial activity against methicillin-sensitive Staphylococcus epidermidis 12-8 after 18 to 24 hrs by standard twofold serial dilution method
[29] = system: Staphylococcus epidermidis; experiment: Antibacterial activity against methicillin-resistant Staphylococcus epidermidis 12-1 after 18 to 24 hrs by standard twofold serial dilution method
[30] = system: Staphylococcus epidermidis; experiment: Antibacterial activity against methicillin-resistant Staphylococcus epidermidis 12-6 after 18 to 24 hrs by standard twofold serial dilution method
Streptococcus pneumoniae [31] = experiment: Antibacterial activity against Streptococcus pneumoniae ATCC 49619 after 18 to 24 hrs by standard twofold serial dilution method
Streptococcus pneumoniae [32] = experiment: Antibacterial activity against Streptococcus pneumoniae 12-18 after 18 to 24 hrs by standard twofold serial dilution method

| SMILES | MIC [1] | MIC (Escherichia coli [2]) | MIC (Escherichia coli [3]) | MIC (Escherichia coli [4]) | MIC (Escherichia coli [5]) | MIC (Escherichia coli [6]) | MIC (Escherichia coli [7]) | MIC (Klebsiella pneumoniae [8]) | MIC (Klebsiella pneumoniae [9]) | MIC (Klebsiella pneumoniae [10]) | MIC (Klebsiella pneumoniae [11]) | MIC (Klebsiella pneumoniae [12]) | MIC (Klebsiella pneumoniae [13]) | MIC (Klebsiella pneumoniae [14]) | MIC (Pseudomonas aeruginosa [15]) | MIC (Pseudomonas aeruginosa [16]) | MIC (Staphylococcus aureus [17]) | MIC (Staphylococcus aureus [18]) | MIC (Staphylococcus aureus [19]) | MIC (Staphylococcus aureus [20]) | further results |
| --- | --- | --- | --- | --- | --- | --- | --- | --- | --- | --- | --- | --- | --- | --- | --- | --- | --- | --- | --- | --- | --- |
| CO/N=C1/CCN(c2cc3c(cc2F)c(=O)c(C(=O)O)cn3[C@@H]2C[C@@H]2F)CC1N (stereo partly drawn) | 1 µg/mL (≈ 2.46 µM) | 0.25 µg/mL (≈ 0.615 µM) | 2 µg/mL (≈ 4.92 µM) | > 128 µg/mL | 16 µg/mL (≈ 39.4 µM) | 128 µg/mL (≈ 315 µM) | > 128 µg/mL | 2 µg/mL (≈ 4.92 µM) | 1 µg/mL (≈ 2.46 µM) | 1 µg/mL (≈ 2.46 µM) | > 128 µg/mL | 16 µg/mL (≈ 39.4 µM) | 4 µg/mL (≈ 9.84 µM) | > 128 µg/mL | 4 µg/mL (≈ 9.84 µM) | 32 µg/mL (≈ 78.7 µM) | 0.5 µg/mL (≈ 1.23 µM) | 0.5 µg/mL (≈ 1.23 µM) | 0.5 µg/mL (≈ 1.23 µM) | 0.5 µg/mL (≈ 1.23 µM) | MIC (Staphylococcus aureus [21]): 0.5 µg/mL (≈ 1.23 µM); MIC (Staphylococcus aureus [22]): 64 µg/mL (≈ 157 µM); MIC (Staphylococcus aureus [23]): 128 µg/mL (≈ 315 µM); MIC (Staphylococcus aureus [24]): 64 µg/mL (≈ 157 µM); MIC [25]: 0.5 µg/mL (≈ 1.23 µM); MIC [26]: 1 µg/mL (≈ 2.46 µM); MIC [27]: 0.5 µg/mL (≈ 1.23 µM); MIC [28]: 2 µg/mL (≈ 4.92 µM); MIC [29]: 8 µg/mL (≈ 19.7 µM); MIC [30]: 2 µg/mL (≈ 4.92 µM); MIC (Streptococcus pneumoniae [31]): 1 µg/mL (≈ 2.46 µM); MIC (Streptococcus pneumoniae [32]): 2 µg/mL (≈ 4.92 µM) |
| CO/N=C1/CN(c2cc3c(cc2F)c(=O)c(C(=O)O)cn3[C@@H]2C[C@@H]2F)CC1CN (stereo partly drawn) | 1 µg/mL (≈ 2.46 µM) | 0.03 µg/mL (≈ 0.0738 µM) | 0.25 µg/mL (≈ 0.615 µM) | 128 µg/mL (≈ 315 µM) | 32 µg/mL (≈ 78.7 µM) | 32 µg/mL (≈ 78.7 µM) | 128 µg/mL (≈ 315 µM) | 0.25 µg/mL (≈ 0.615 µM) | 0.25 µg/mL (≈ 0.615 µM) | 0.25 µg/mL (≈ 0.615 µM) | 32 µg/mL (≈ 78.7 µM) | 16 µg/mL (≈ 39.4 µM) | 1 µg/mL (≈ 2.46 µM) | 64 µg/mL (≈ 157 µM) | 2 µg/mL (≈ 4.92 µM) | 2 µg/mL (≈ 4.92 µM) | < 0.008 µg/mL | 0.125 µg/mL (≈ 0.308 µM) | 0.125 µg/mL (≈ 0.308 µM) | 0.06 µg/mL (≈ 0.148 µM) | MIC (Staphylococcus aureus [21]): 0.125 µg/mL (≈ 0.308 µM); MIC (Staphylococcus aureus [22]): 16 µg/mL (≈ 39.4 µM); MIC (Staphylococcus aureus [23]): 4 µg/mL (≈ 9.84 µM); MIC (Staphylococcus aureus [24]): 8 µg/mL (≈ 19.7 µM); MIC [25]: 0.06 µg/mL (≈ 0.148 µM); MIC [26]: 0.06 µg/mL (≈ 0.148 µM); MIC [27]: 0.125 µg/mL (≈ 0.308 µM); MIC [28]: 0.25 µg/mL (≈ 0.615 µM); MIC [29]: 2 µg/mL (≈ 4.92 µM); MIC [30]: 0.125 µg/mL (≈ 0.308 µM); MIC (Streptococcus pneumoniae [31]): 0.03 µg/mL (≈ 0.0738 µM); MIC (Streptococcus pneumoniae [32]): 0.25 µg/mL (≈ 0.615 µM) |
| CCO/N=C1/CN(c2cc3c(cc2F)c(=O)c(C(=O)O)cn3[C@@H]2C[C@@H]2F)CC1CN (stereo partly drawn) | 0.25 µg/mL (≈ 0.595 µM) | 0.06 µg/mL (≈ 0.143 µM) | 0.5 µg/mL (≈ 1.19 µM) | 32 µg/mL (≈ 76.1 µM) | 16 µg/mL (≈ 38.1 µM) | 16 µg/mL (≈ 38.1 µM) | 128 µg/mL (≈ 304 µM) | 0.25 µg/mL (≈ 0.595 µM) | 0.25 µg/mL (≈ 0.595 µM) | 0.25 µg/mL (≈ 0.595 µM) | 16 µg/mL (≈ 38.1 µM) | 8 µg/mL (≈ 19 µM) | 1 µg/mL (≈ 2.38 µM) | 32 µg/mL (≈ 76.1 µM) | 0.25 µg/mL (≈ 0.595 µM) | 1 µg/mL (≈ 2.38 µM) | < 0.008 µg/mL | 0.06 µg/mL (≈ 0.143 µM) | 0.015 µg/mL (≈ 0.0357 µM) | 0.06 µg/mL (≈ 0.143 µM) | MIC (Staphylococcus aureus [21]): 0.06 µg/mL (≈ 0.143 µM); MIC (Staphylococcus aureus [22]): 8 µg/mL (≈ 19 µM); MIC (Staphylococcus aureus [23]): 8 µg/mL (≈ 19 µM); MIC (Staphylococcus aureus [24]): 8 µg/mL (≈ 19 µM); MIC [25]: 0.06 µg/mL (≈ 0.143 µM); MIC [26]: 0.25 µg/mL (≈ 0.595 µM); MIC [27]: 0.06 µg/mL (≈ 0.143 µM); MIC [28]: 0.5 µg/mL (≈ 1.19 µM); MIC [29]: 1 µg/mL (≈ 2.38 µM); MIC [30]: 1 µg/mL (≈ 2.38 µM); MIC (Streptococcus pneumoniae [31]): 0.03 µg/mL (≈ 0.0714 µM); MIC (Streptococcus pneumoniae [32]): 0.25 µg/mL (≈ 0.595 µM) |
| NCC1CN(c2cc3c(cc2F)c(=O)c(C(=O)O)cn3[C@@H]2C[C@@H]2F)C/C1=N/OCc1ccccc1 (stereo partly drawn) | 0.25 µg/mL (≈ 0.518 µM) | 0.06 µg/mL (≈ 0.124 µM) | 0.06 µg/mL (≈ 0.124 µM) | 64 µg/mL (≈ 133 µM) | 32 µg/mL (≈ 66.3 µM) | 16 µg/mL (≈ 33.2 µM) | 64 µg/mL (≈ 133 µM) | 0.06 µg/mL (≈ 0.124 µM) | 0.25 µg/mL (≈ 0.518 µM) | 0.25 µg/mL (≈ 0.518 µM) | 16 µg/mL (≈ 33.2 µM) | 16 µg/mL (≈ 33.2 µM) | 16 µg/mL (≈ 33.2 µM) | 64 µg/mL (≈ 133 µM) | 1 µg/mL (≈ 2.07 µM) | 1 µg/mL (≈ 2.07 µM) | < 0.008 µg/mL | 0.06 µg/mL (≈ 0.124 µM) | < 0.008 µg/mL | 0.06 µg/mL (≈ 0.124 µM) | MIC (Staphylococcus aureus [21]): 0.06 µg/mL (≈ 0.124 µM); MIC (Staphylococcus aureus [22]): 4 µg/mL (≈ 8.29 µM); MIC (Staphylococcus aureus [23]): 8 µg/mL (≈ 16.6 µM); MIC (Staphylococcus aureus [24]): 4 µg/mL (≈ 8.29 µM); MIC [25]: 0.125 µg/mL (≈ 0.259 µM); MIC [26]: 0.125 µg/mL (≈ 0.259 µM); MIC [27]: 0.06 µg/mL (≈ 0.124 µM); MIC [28]: 0.125 µg/mL (≈ 0.259 µM); MIC [29]: 1 µg/mL (≈ 2.07 µM); MIC [30]: 0.5 µg/mL (≈ 1.04 µM); MIC (Streptococcus pneumoniae [31]): 0.06 µg/mL (≈ 0.124 µM); MIC (Streptococcus pneumoniae [32]): 0.25 µg/mL (≈ 0.518 µM) |
